molecular target: T1, sodium-proton exchanger of subtype 3 (NHE3) (Homo sapiens, UniProt P48764); experiment: Recovery of intracellular pH (pHi) after acidification in LAP1 cells stably expressing NHE3 (BCECF fluorescence, FLIPR); type: cell-based; details: Activity range (inhibitory effect on NHE3), LAP1 cells stably expressing NHE3; pH recovery after acidification; range 1 is % inhibition at 10 μM
T1 construct: expressed in transfected cells
T1 sequence (P48764 26-834): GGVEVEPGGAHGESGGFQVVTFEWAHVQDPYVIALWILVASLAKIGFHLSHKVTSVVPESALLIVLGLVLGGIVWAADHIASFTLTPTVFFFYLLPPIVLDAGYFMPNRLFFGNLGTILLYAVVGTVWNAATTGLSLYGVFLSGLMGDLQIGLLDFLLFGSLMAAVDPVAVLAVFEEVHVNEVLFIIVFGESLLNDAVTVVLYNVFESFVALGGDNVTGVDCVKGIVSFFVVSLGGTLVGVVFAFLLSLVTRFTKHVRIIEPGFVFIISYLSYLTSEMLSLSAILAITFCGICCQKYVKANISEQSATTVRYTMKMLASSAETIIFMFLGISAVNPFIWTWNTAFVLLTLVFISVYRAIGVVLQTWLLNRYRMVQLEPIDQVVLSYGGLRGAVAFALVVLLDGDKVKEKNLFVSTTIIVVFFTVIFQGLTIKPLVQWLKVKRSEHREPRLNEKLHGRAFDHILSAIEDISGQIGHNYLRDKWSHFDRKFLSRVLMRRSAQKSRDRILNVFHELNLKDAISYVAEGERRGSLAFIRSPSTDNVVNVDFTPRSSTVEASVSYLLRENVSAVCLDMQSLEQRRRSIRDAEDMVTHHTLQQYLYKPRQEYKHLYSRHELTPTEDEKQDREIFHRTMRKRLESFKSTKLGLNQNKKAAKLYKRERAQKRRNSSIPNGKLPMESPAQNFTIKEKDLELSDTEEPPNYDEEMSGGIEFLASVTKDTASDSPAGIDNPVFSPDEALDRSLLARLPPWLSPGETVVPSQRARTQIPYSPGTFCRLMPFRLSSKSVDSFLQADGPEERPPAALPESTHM

Row | SMILES | IC50 [nM]
1 | CCN(CC)C(=O)c1ccc(O[C@H]2c3ccccc3C[C@@H]2N2CCCC2)cc1 (racemic) [Example 633, N,N-diethyl-4-(rac-trans-(1,2)-2-pyrrolidin-1-ylindan-1-yloxy)benzamide] | 1000 to 10000

same assay, conditions: LAP1 cells stably expressing NHE3; pH recovery after acidification; range 1 is % inhibition at 10 μM; read-out: Activity range (inhibitory effect on NHE3)

Row | IC50 [nM] | inhibition at 10 µM [%] | SMILES
2 | 1000 to 10000 | – | CC(=O)Nc1cccc(OC2c3ccccc3CC2N(C)C)c1 (racemic) [Example 638, N-[3-(rac-trans-(1,2)-2-dimethylaminoindan-1-yloxy)phenyl]acetamide]
3 | 1000 to 10000 | – | CCc1ccc(O[C@@H]2c3ccccc3C[C@H]2N2CCC(CN)C2)c(C(C)(C)C)c1 (mixture of isomers) [Example 610, C-{1-[rac-trans-(1,2)-1-(2-tert-butyl-4-ethylphenoxy)indan-2-yl]pyrrolidin-3-yl}methylamine]
4 | – | 20 to 50 | CS(=O)(=O)c1ccc(O[C@H]2c3cc(Cl)cc(Cl)c3C[C@@H]2N2CCC(S(C)(=O)=O)C2)cc1 (mixture of isomers) [Example 249, 1-[(1S,2S)-4,6-dichloro-1-(4-methanesulfonylphenoxy)indan-2-yl]-3-methanesulfonylpyrrolidine]
5 | 1000 to 10000 | – | CC(=O)Nc1cccc(O[C@H]2c3cc(Cl)cc(Cl)c3C[C@@H]2N2CC[C@@H](CO)C2)c1 [Example 695, N-{3-[trans-(1S,2S)-4,6-dichloro-2-((R)-3-hydroxymethylpyrrolidin-1-yl)indan-1-yloxy]phenyl}acetamide]
6 | 1000 to 10000 | – | CS(=O)(=O)c1ccc(O[C@H]2c3cc(Cl)cc(Cl)c3C[C@@H]2CN2CCCC2)cc1 (racemic) [Example 280, trans-4,6-dichloro-1-(4-methylsulfonyl-phenyloxy)-2-pyrrolidinylmethylindane]
7 | < 1000 | – | CS(=O)(=O)c1ccc(O[C@H]2c3cc(Cl)cc(Cl)c3C[C@@H]2N2CC[C@H](F)C2)cc1 [Example 196, (S)-1-[trans-(1S,2S)-4,6-dichloro-1-(4-methanesulfonylphenoxy)indan-2-yl]-3-fluoropyrrolidine]
8 | 1000 to 10000 | – | Cn1ccn(-c2ccc(F)c(O[C@H]3c4cc(F)cc(F)c4C[C@@H]3N3CC[C@@H](O)C3)c2)c1=O [Example 317, 1-{3-[(1S,2S)-4,6-difluoro-2-((R)-3-hydroxypyrrolidin-1-yl)indan-1-yloxy]-4-fluorophenyl}-3-methyl-1,3-dihydroimidazol-2-one]
9 | – | 20 to 50 | COC(=O)c1ccc(O[C@H]2c3ccccc3CC[C@@H]2N2CCC[C@@H](N)C2)c(Cl)c1 (racemic) [Example 513, 4-[rac-trans-(1,2)-2-((R)-3-aminopiperidin-1-yl)-1,2,3,4-tetrahydronaphthalen-1-yloxy]-3-chlorobenzoic acid methyl ester]
10 | 1000 to 10000 | – | N[C@@H]1CCCN([C@@H]2Cc3ccccc3[C@H]2Oc2ccc(NC(=O)OCc3ccccc3)cc2)C1 (racemic) [Example 238, {4-[rac-trans-(1,2)-2-((R)-3-aminopiperidin-1-yl)indan-1-yloxy]phenyl}carbamic acid benzyl ester]
11 | 1000 to 10000 | – | CS(=O)(=O)c1ccc(O[C@H]2c3ccccc3CC[C@@H]2N2CCC[C@H](N)C2)cc1 (racemic) [Example 182, (S)-1-[rac-trans-(1,2)-1-(4-methanesulfonylphenoxy)-1,2,3,4-tetrahydronaphthalen-2-yl]piperidin-3-ylamine]
12 | 1000 to 10000 | – | N[C@@H]1CCCN([C@@H]2Cc3ccccc3[C@H]2Oc2ccc(F)cc2F)C1 (racemic) [Example 33, (R)-1-[rac-trans-(1,2)-1-(2,4-difluorophenoxy)indan-2-yl]piperidin-3-ylamine]
13 | 1000 to 10000 | – | CC(=O)Nc1cccc(O[C@H]2c3ccc(Cl)cc3C[C@@H]2N2CCCC2)c1 (racemic) [Example 655, N-[3-(rac-trans-(1,2)-5-chloro-2-pyrrolidin-1-ylindan-1-yloxy)phenyl]acetamide]
14 | – | 20 to 50 | NS(=O)(=O)c1ccc(O[C@H]2c3ccccc3C[C@@H]2NCc2ccccc2)c(F)c1 (racemic) [Example 459, 4-(2-benzylaminoindan-1-yloxy)-3-fluorobenzenesulfonamide]
15 | 1000 to 10000 | – | NS(=O)(=O)c1ccc(OC2c3ccccc3CC2N2CC[C@@H](N3CCCC3)C2)cc1 (mixture of isomers) [Example 463, 4-(rac-trans-(1,2)-(R)-2-[1,3′]Bipyrrolidinyl-1′-ylindan-1-yloxy)benzenesulfonamide]
16 | 1000 to 10000 | – | CN(C)CCCN(C)[C@H]1Cc2ccccc2[C@@H]1Oc1ccc(S(C)(=O)=O)cc1 (racemic) [Example 669, N-[rac-trans-(1,2)-1-(4-methanesulfonylphenoxy)indan-2-yl]-N,N′,N′-trimethylpropane-1,3-diamine]
17 | – | 20 to 50 | O=C(O[C@H]1c2ccccc2C[C@@H]1N1CCCC1)c1ccc(N2CCCC2=O)cc1 [Example 461, 4-(2-Oxopyrrolidin-1-yl)benzoic acid (1S,2S)-2-pyrrolidin-1-ylindan-1-yl ester]
18 | 1000 to 10000 | – | NC(=O)c1cccc(O[C@@H]2c3ccccc3C[C@H]2N2C[C@H]3CNC[C@H]3C2)c1 (racemic) [Example 410, 3-[rac-trans-(1,2)-2-(hexahydropyrrolo[3,4-c]pyrrol-2-yl)indan-1-yloxy]benzamide]
19 | 1000 to 10000 | – | NS(=O)(=O)c1ccc(O[C@H]2c3cc(Cl)cc(Cl)c3C[C@@H]2NC2CCCC2)c(F)c1 [Example 748, 4-(trans-(1S,2S)-4,6-Dichloro-2-cyclopentylamino-indan-1-yloxy)-3-fluoro-benzenesulfonamide]
20 | 1000 to 10000 | – | CS(=O)(=O)c1ccc(O[C@H]2c3cc(F)cc(Cl)c3C[C@@H]2N2CCCC2)cc1 (racemic) [Example 284, 1-[rac-trans-(1,2)-4-chloro-6-fluoro-1-(4-methanesulfonylphenoxy)indan-2-yl]pyrrolidine]
21 | < 1000 | – | CN1CCCN([C@H]2Cc3c(Cl)cc(Cl)cc3[C@@H]2Oc2ccc(S(C)(=O)=O)cc2)CC1 (racemic) [Example 279, 1-[rac-trans-(1,2)-4,6-dichloro-1-(4-methanesulfonylphenoxy)indan-2-yl]-4-methyl-[1,4]diazepane]
22 | < 1000 | – | CS(=O)(=O)c1ccc(O[C@H]2c3cc(Cl)cc(Cl)c3C[C@@H]2N2CCC[C@@H](N)C2)cc1 [Example 102, (R)-1-[trans-(1S,2S)-4,6-dichloro-1-(4-methanesulfonylphenoxy)indan-2-yl]piperidin-3-ylamine]
23 | 1000 to 10000 | – | N[C@@H]1CCCN([C@@H]2Cc3ccccc3[C@H]2Oc2ccc(Br)cc2-c2cc[nH]n2)C1 (racemic) [Example 118, (R)-1-{rac-trans-(1,2)-1-[4-bromo-2-(1H-pyrazol-3-yl)phenoxy]indan-2-yl}piperidin-3-ylamine]
24 | 1000 to 10000 | – | O=C1CCCN1c1ccc(O[C@H]2c3cc(Cl)cc(Cl)c3C[C@@H]2N2CCCC2)cc1 [Example 260, 1-[4-((1S,2S)-4,6-dichloro-2-pyrrolidin-1-ylindan-1-yloxy)phenyl]pyrrolidin-2-one]
25 | – | 20 to 50 | CS(=O)(=O)c1ccc(O[C@H]2c3cc(Cl)ccc3C[C@@H]2N2CCN(CCO)CC2)cc1 (racemic) [Example 384, 2-{4-[rac-trans-(1,2)-6-chloro-1-(4-methanesulfonylphenoxy)indan-2-yl]piperazin-1-yl}-ethanol]
26 | < 1000 | – | CC(=O)Nc1cccc(O[C@H]2c3cc(Cl)cc(F)c3C[C@@H]2N2CCNCC2)c1 (racemic) [Example 659, N-[3-(rac-trans-(1,2)-6-chloro-4-fluoro-2-piperazin-1-ylindan-1-yloxy)phenyl]acetamide]
27 | 1000 to 10000 | – | CCOC(=O)c1ncoc1-c1ccc(O[C@H]2c3ccccc3CC[C@@H]2N2CCC[C@H](N)C2)cc1 (racemic) [Example 584, 5-{4-[rac-trans-(1,2)-2-((S)-3-aminopiperidin-1-yl)-1,2,3,4-tetrahydronaphthalen-1-yloxy]phenyl}oxazole-4-carboxylic acid ethyl ester]
28 | – | 20 to 50 | CSc1ccc(O[C@H]2c3ccccc3CC[C@@H]2N2CCC[C@H](N)C2)cc1 (racemic) [Example 183, (S)-1-[rac-trans-(1,2)-1-(4-methylsulfanylphenoxy)-1,2,3,4-tetrahydronaphthalen-2-yl]piperidin-3-ylamine]
29 | – | 20 to 50 | CC(C)[C@H]1COC(=O)N1c1ccc(Cl)c(O[C@H]2c3cc(Cl)cc(F)c3C[C@@H]2N2CC[C@@H](O)C2)c1 [Example 211, (S)-3-{4-chloro-3-[(1S,2S)-6-chloro-4-fluoro-2((R)-3-hydroxypyrrolidin-1-yl)indan-1-yloxy]phenyl}-4-isopropyloxazolidin-2-one]

Row | SMILES | IC50 [nM] | inhibition at 10 µM [%]
30 | N#Cc1ccc(O[C@H]2c3ccccc3C[C@@H]2CN2CCCC2)cc1Cl (racemic) [Example 391, 2-chloro-4-(2-pyrrolidin-1-ylmethylindan-1-yloxy)benzonitrile] | – | 20 to 50

Source: patent publication US8822449B2, “Substituted aminoindanes and analogs thereof, and the pharmaceutical use thereof” (Sanofi, priority 2008, dated 2014)
